Here are results for 16 molecules from US20100022572A1, “NOVEL SPIRO COMPOUND AND MEDICINE COMPRISING THE SAME” (KOWA COMPANY, LTD., priority 2008, published 2010).

The target in one assay is T1, human 11β-HSD1 (Homo sapiens, UniProt P28845).
T1 construct: The obtained PCR products of about 0.9 kbp, 1.2 kbp, and 0.9 kbp were subcloned into an expression vector pcDNA3.1+/Zeo; made in house
The assay is described as follows: Assay of enzyme inhibitory activity, human 11β-HSD1 (lysate of stably expressing HEK293 cells, cortisol ELISA). The format is biochemical. To be noted: Table 1; human 11β-HSD1, cell lysate, 100 nmol/L substrate, 37° C. 1 hour. The method, then:
(§1) Human 11β-HSD1-, human 11β-HSD2- and mouse 11β-HSD1-inhibitory effect • 1. Human 11β-HSD1-, Human 11β-HSD2- and Mouse 11β-HSD1-Gene Clonings and Establishment of Stably Expressing Cells
(§2) Human 11β-HSD1-, human 11β-HSD2-, and mouse 11β-HSD1-gene clonings were conducted using as a template a reverse transcription product of human-liver RNA, human-kidney RNA (CELL APPLICATIONS), and mouse-kidney RNA respectively, by means of PCR cloning with reference to nucleotide sequences of Genbank Accession Nos. NM_005525, NM_000196, and NM_008288. The obtained PCR products of about 0.9 kbp, 1.2 kbp, and 0.9 kbp were subcloned into an expression vector pcDNA3.1+/Zeo (Invitrogen).
(§3) Human 11β-HSD1- and human 11β-HSD2-expressing vectors were transfected into human kidney-derived cell line, HEK293 cells, using a transfection reagent, jet PEI (Funakoshi). Mouse 11β-HSD1 was transfected to Chinese hamster ovary-derived cell line, CHO-K1 cells. Selection was conducted with 200-400 μg/mL of zeocine (Invitrogen) to provide stably expressing-cell clones. The stably expressing cells were suspended in buffer solution A (20 mmol/L Tris-HCl, pH 7.4, 250 mmol/L sucrose, 1 mmol/L EGTA, 1 mmol/L EDTA, 1 mmol/L MgCl2), sonicated, and then stored at −80° C. • 2. Assay of Enzyme Inhibitory Activity
(§4) An enzymatic reaction was conducted using a polystyrene 96-well plate. Each well was added with 1 μL of a test agent dissolved in DMSO and then diluted (0.003 to 3 mmol/L), and further added with 10 μL of cell lysate diluted to a concentration of 0.1 mg/mL to 0.4 mg/mL. Next, 90 μL of buffer solution A containing substrate (100 nmol/L cortisone or cortisol) and coenzyme (400 μmol/L NADPH or NAD+) was added and the mixture was incubated at 37° C. for 1 hour. The enzymatic reaction was stopped by treating at 95° C. for 3 minutes. Cortisol that was present in the reaction solution was determined by a competitive ELISA shown below.
(§5) Anti-rabbit IgG antibody (Chemi-con) diluted to 2 μg/mL with carbonate buffer solution (pH 9.6) was added in 100 μL each to a 96-well immuno plate (Nunc) and immobilized by an incubation at 4° C. overnight. 50 μL of enzymatic reaction solution was put onto the plates, and further, anti-cortisol antibody (Cosmo Bio) and HRP-labeled cortisol (Cosmo Bio), diluted with buffer solution B (25 mmol/L Tris-HCl pH 7.4, 137 mmol/L NaCl, 2.68 mmol/L KCl), were added in 50 μL respectively and incubated at 4° C. overnight. After washed three times with buffer solution B containing 0.05% Tween 20, the plates were allowed to develop color by adding 100 μL of color reagent, TMB (Moss). The color reaction was stopped by 25 μL of 1 mol/L sulfuric acid and the absorbance was determined at 450 nm with a microplate reader (Molecular Device, VersaMax).
The values of human 11β-HSD1, human 11β-HSD2, and mouse 11β-HSD1 activities were subtracted from 100, and the resultant values were regarded as the respective 11β-HSD inhibition rates of example compounds. For each example compound, the value of 50% inhibitory concentration (IC50) was calculated from 11β-HSD inhibition rates at plural concentrations, for 11β-HSD1 and activities.
(In general: ELISA stands for enzyme-linked immunosorbent assay.)

The target of the next assay is T2, human 11β-HSD2 (Homo sapiens, UniProt P80365).
T2 construct: The obtained PCR products of about 0.9 kbp, 1.2 kbp, and 0.9 kbp were subcloned into an expression vector pcDNA3.1+/Zeo; made in house
T2 sequence (P80365 1-405): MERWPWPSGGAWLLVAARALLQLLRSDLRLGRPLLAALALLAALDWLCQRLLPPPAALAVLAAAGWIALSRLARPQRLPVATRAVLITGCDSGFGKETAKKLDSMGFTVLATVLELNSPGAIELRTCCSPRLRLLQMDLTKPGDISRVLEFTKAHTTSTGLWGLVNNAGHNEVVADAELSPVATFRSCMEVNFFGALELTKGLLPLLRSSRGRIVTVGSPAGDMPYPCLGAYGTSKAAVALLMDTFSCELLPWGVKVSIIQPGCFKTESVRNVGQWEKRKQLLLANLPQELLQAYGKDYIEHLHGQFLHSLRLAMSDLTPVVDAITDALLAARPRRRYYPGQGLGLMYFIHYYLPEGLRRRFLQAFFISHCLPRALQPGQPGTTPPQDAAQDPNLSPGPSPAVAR
Nature of the assay: Assay of enzyme inhibitory activity, human 11β-HSD2 (lysate of stably expressing HEK293 cells, cortisol ELISA). The format is biochemical. The following applies: Table 1; human 11β-HSD2, cell lysate, 100 nmol/L substrate, 37° C. 1 hour. As for the experimental part:
as §1, §2, §3, §4
as §5, with “VersaMax). […]” for “VersaMax).”

T1 sequence (P28845 whole entry): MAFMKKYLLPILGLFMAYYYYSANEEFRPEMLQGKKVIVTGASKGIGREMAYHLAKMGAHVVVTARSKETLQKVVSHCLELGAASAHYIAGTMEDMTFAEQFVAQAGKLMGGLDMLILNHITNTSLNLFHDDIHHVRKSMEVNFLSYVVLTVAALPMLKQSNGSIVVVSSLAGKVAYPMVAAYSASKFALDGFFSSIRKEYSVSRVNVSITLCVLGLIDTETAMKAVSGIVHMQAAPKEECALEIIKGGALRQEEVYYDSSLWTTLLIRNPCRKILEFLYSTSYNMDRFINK

`O=C(COc1ccccc1C(F)(F)F)N1CCC2(CC1)C(Cl)=Cc1ccccc12` [Example 22, 1-[2-chlorospiro(indene-1,4′-piperidine)-1′-yl]-2-[2-(trifluoromethyl)phenoxy]ethanone] registered a half-maximal inhibitory concentration (IC50) on human 11β-HSD1 of 0.03 µM.
The molecule `CC(C)C1=Cc2ccccc2C12CCN(C(=O)COc1ccccc1C(F)(F)F)CC2` [Example 19, 1-[2-isopropylspiro(indene-1,4′-piperidine)-1′-yl]-2-[2-(trifluoromethyl)phenoxy]ethanone] returned an IC50 on human 11β-HSD1 of 0.34 µM.
Regarding `O=C1CC2(CCN(C(=O)COc3ccccc3C(F)(F)F)CC2)c2ccccc21` [Example 13], the IC50 against human 11β-HSD1 came out at 1 µM.
Take `O=C(COc1ccccc1C(F)(F)F)N1CCC2(CC1)C(C1CC1)=Cc1ccccc12` [Example 20, 1-[2-cyclopropylspiro(indene-1,4′-piperidine)-1′-yl]-2-[2-(trifluoromethyl)phenoxy]ethanone]: on human 11β-HSD1, the IC50 is 0.088 µM.
On human 11β-HSD1, `CC1=CC2(CCN(C(=O)COc3ccccc3C(F)(F)F)CC2)c2ccccc21` [Example 24, 1-[3-methylspiro(indene-1,4′-piperidine)-1′-yl]-2-[2-(trifluoromethyl)phenoxy]ethanone] showed an IC50 of 0.066 µM.
Same read-out and setting: in the case of `CC1=Cc2ccccc2C12CCN(C(=O)COc1ccccc1C(F)(F)F)CC2` [Example 16, 1-[2-methylspiro(indene-1,4′-piperidine)-1′-yl]-2-[2-(trifluoromethyl)phenoxy]ethanone] it was 0.043 µM; in that of `O=C(COc1ccccc1C(F)(F)F)N1CCC2(CCc3ccccc32)CC1` [Example 10, 1-[2,3-dihydrospiro(indene-1,4′-piperidine)-1′-yl]-2-[2-(trifluoromethyl)phenoxy]ethanone], 0.025 µM.
Turning to `CCC1=Cc2ccccc2C12CCN(C(=O)COc1ccccc1C(F)(F)F)CC2` [Example 17, 1-[2-ethylspiro(indene-1,4′-piperidine)-1′-yl]-2-[2-(trifluoromethyl)phenoxy]ethanone], the IC50 against human 11β-HSD1 came out at 0.048 µM.
`O=C(COc1ccccc1I)N1CCC2(C=Cc3ccccc32)CC1` [Example 4, 2-(2-iodophenoxy)-1-[spiro(indene-1,4′-piperidine)-1′-yl]ethanone]: the IC50 was 0.11 µM against human 11β-HSD1 and greater than 30 µM against human 11β-HSD2.
Molecule `CC1Cc2ccccc2C12CCN(C(=O)COc1ccccc1C(F)(F)F)CC2` (centres unmarked) [Example 25, 1-[2-methyl-2,3-dihydrospiro(indene-1,4′-piperidine)-1′-yl]-2-[2-(trifluoromethyl)phenoxy]ethanone] had an IC50 against human 11β-HSD1 of 0.12 µM.
As to `O=C(COc1ccccc1C(F)(F)F)N1CCC2(C=Cc3ccccc32)CC1` [Example 1, 1-[spiro(indene-1,4′-piperidine)-1′-yl]-2-[2-(trifluoromethyl)phenoxy]ethanone], the IC50 was 0.029 µM at human 11β-HSD1 and greater than 30 µM on human 11β-HSD2.
For the molecule `O=C(COc1ccccc1C(F)(F)F)N1CCC2(CC1)c1ccccc1CC2O` (centres unmarked) [Example 11, 1-[2-hydroxy-2,3-dihydrospiro(indene-1,4′-piperidine)-1′-yl]-2-[2-(trifluoromethyl)phenoxy]ethanone], on human 11β-HSD1, the IC50 turned out to be 0.23 µM. That is a sub-micromolar value.
With `CCCC1=Cc2ccccc2C12CCN(C(=O)COc1ccccc1C(F)(F)F)CC2` [Example 18, 1-[2-propylspiro(indene-1,4′-piperidine)-1′-yl]-2-[2-(trifluoromethyl)phenoxy]ethanone], inhibition at human 11β-HSD1 was half-maximal at 0.24 µM (IC50).
As to `CCc1ccccc1OCC(=O)N1CCC2(C=Cc3ccccc32)CC1` [Example 3, 2-(2-ethylphenoxy)-1-[spiro(indene-1,4′-piperidine)-1′-yl]ethanone], the figures for the IC50 against human 11β-HSD1 and on human 11β-HSD2 were 0.72 µM and greater than 30 µM, respectively.
Take `O=C(COc1ccccc1C(F)(F)F)N1CCC2(CC1)C(=O)Cc1ccccc12` [Example 12, 1′-[2-[2-(trifluoromethyl)phenoxy]acetyl]spiro(indene-1,4′-piperidine)-2(3H)-one]: the results for the IC50 at human 11β-HSD1 and against human 11β-HSD2 were 0.077 µM and greater than 30 µM, respectively.
Take `O=C(COc1ccccc1C(F)(F)F)N1CCC2(CC1)C(Br)=Cc1ccccc12` [Example 23, 1-[2-bromospiro(indene-1,4′-piperidine)-1′-yl]-2-[2-(trifluoromethyl)phenoxy]ethanone]: the IC50 on human 11β-HSD1 was 0.049 µM.

In general, IC50 refers to the concentration that inhibits the measured activity by half. The low end stands for greater potency in that assay, the high end for weaker potency in that assay.
